# Measurements as given in PMC5218480 (PLoS ONE, 2017).
# Tested on: MV-4-11 cells
# Assay: Gene expression microarray analysis (Affymetrix PrimeView) and GSEA
# Format: cell-based, human
# Design: RFU PODN (11730768_x_at) / Fold change /veh PODN (11730768_x_at) / RFU LINC00158 (11744669_a_at) / Fold change /veh LINC00158 (11744669_a_at) / RFU DUSP10 (11751237_a_at) / Fold change /veh DUSP10 (11751237_a_at) / RFU ID3 (11757404_x_at) / Fold change /veh ID3 (11757404_x_at) / RFU PLEKHG5 (11737974_s_at) / Fold change /veh PLEKHG5 (11737974_s_at) / RFU LRRC4B (11730491_at) / Fold change /veh LRRC4B (11730491_at) / RFU GIMAP4 (11747438_a_at) / Fold change /veh GIMAP4 (11747438_a_at) / RFU KRT8 (11758183_x_at) / Fold change /veh KRT8 (11758183_x_at) / RFU CNN1 (11734310_a_at) / Fold change /veh CNN1 (11734310_a_at) / RFU VPS37D (11726825_at) / Fold change /veh VPS37D (11726825_at) / RFU C10orf10 (11716522_x_at) / Fold change /veh C10orf10 (11716522_x_at) / RFU KIR2DL2 /// KIR2DL4 /// KIR2DL5A /// KIR2DL5B /// KIR2DS1 /// KIR2DS2 /// KIR2DS3 /// KIR2DS4 /// KIR3DL3 /// KIR3DL3 /// KIR3DS1 (11738374_at) / Fold change /veh KIR2DL2 /// KIR2DL4 /// KIR2DL5A /// KIR2DL5B /// KIR2DS1 /// KIR2DS2 /// KIR2DS3 /// KIR2DS4 /// KIR3DL3 /// KIR3DL3 /// KIR3DS1 (11738374_at) / RFU C1QL1 (11718748_at) / Fold change /veh C1QL1 (11718748_at) / RFU TMPRSS4 (11747572_a_at) / Fold change /veh TMPRSS4 (11747572_a_at) / RFU HAMP (11756126_x_at) / Fold change /veh HAMP (11756126_x_at) / RFU RNFT2 (11725882_a_at) / Fold change /veh RNFT2 (11725882_a_at) / RFU NR4A2 (11747474_a_at) / Fold change /veh NR4A2 (11747474_a_at) / RFU ABCC12 (11746883_a_at) / Fold change /veh ABCC12 (11746883_a_at) / RFU TMEM136 (11760407_x_at) / Fold change /veh TMEM136 (11760407_x_at) / RFU CLDN22 /// WWC2 (11732394_at) / Fold change /veh CLDN22 /// WWC2 (11732394_at) / RFU HLA-DPB1 (11760878_x_at) / Fold change /veh HLA-DPB1 (11760878_x_at) / RFU SPINT1 (11716480_a_at) / Fold change /veh SPINT1 (11716480_a_at) / RFU GAP43 (11754022_s_at) / Fold change /veh GAP43 (11754022_s_at) / RFU A4GNT (11735810_at) / Fold change /veh A4GNT (11735810_at) / RFU PRB3 (11715151_x_at) / Fold change /veh PRB3 (11715151_x_at) / RFU TUBB4B (11761932_at) / Fold change /veh TUBB4B (11761932_at) / RFU CAPN14 (11732068_a_at) / Fold change /veh CAPN14 (11732068_a_at) / RFU TMCC2 (11721928_a_at) / Fold change /veh TMCC2 (11721928_a_at) / RFU IRGQ (11745062_a_at) / Fold change /veh IRGQ (11745062_a_at) / RFU FAM174B (11720279_a_at) / Fold change /veh FAM174B (11720279_a_at) / RFU TMPRSS4 (11748680_a_at) / Fold change /veh TMPRSS4 (11748680_a_at) / RFU FAM212B (11763350_a_at) / Fold change /veh FAM212B (11763350_a_at) / RFU PLEKHG5 (11743358_a_at) / Fold change /veh PLEKHG5 (11743358_a_at) / RFU ZSCAN30 (11745921_a_at) / Fold change /veh ZSCAN30 (11745921_a_at) / RFU CMKLR1 (11741424_a_at) / Fold change /veh CMKLR1 (11741424_a_at) / RFU LOC101060620 /// MAPK8IP1 (11723275_at) / Fold change /veh LOC101060620 /// MAPK8IP1 (11723275_at) / RFU SPTSSB (11747773_x_at) / Fold change /veh SPTSSB (11747773_x_at) / RFU PRSS12 (11739890_at) / Fold change /veh PRSS12 (11739890_at) / RFU BIN1 (11741810_x_at) / Fold change /veh BIN1 (11741810_x_at) / RFU WNT11 (11732464_a_at) / Fold change /veh WNT11 (11732464_a_at) / RFU C10orf10 (11716521_a_at) / Fold change /veh C10orf10 (11716521_a_at) / RFU C5orf56 (11738089_at) / Fold change /veh C5orf56 (11738089_at) / RFU CYB561 (11721691_x_at) / Fold change /veh CYB561 (11721691_x_at) / RFU ANKRD19P (11752326_a_at) / Fold change /veh ANKRD19P (11752326_a_at) / RFU OR2T12 /// OR2T33 /// OR2T8 (11738714_s_at) / Fold change /veh OR2T12 /// OR2T33 /// OR2T8 (11738714_s_at) / RFU VCAN (11748164_a_at) / Fold change /veh VCAN (11748164_a_at) / RFU JSRP1 (11732532_at) / Fold change /veh JSRP1 (11732532_at) / RFU KRTAP10-11 (11738290_x_at) / Fold change /veh KRTAP10-11 (11738290_x_at) / RFU MYO3A (11730013_a_at) / Fold change /veh MYO3A (11730013_a_at) / RFU EBF3 (11725865_a_at) / Fold change /veh EBF3 (11725865_a_at) / RFU CAMK2N1 (11719241_x_at) / Fold change /veh CAMK2N1 (11719241_x_at) / RFU C5orf56 (11738088_a_at) / Fold change /veh C5orf56 (11738088_a_at) / RFU OLFML3 (11715873_a_at) / Fold change /veh OLFML3 (11715873_a_at) / RFU LOC100653217 /// NTM (11731650_a_at) / Fold change /veh LOC100653217 /// NTM (11731650_a_at) / RFU MAPK11 (11762145_a_at) / Fold change /veh MAPK11 (11762145_a_at) / RFU FIZ1 (11724087_x_at) / Fold change /veh FIZ1 (11724087_x_at) / RFU OASL (11726364_x_at) / Fold change /veh OASL (11726364_x_at) / RFU SOX15 (11748057_x_at) / Fold change /veh SOX15 (11748057_x_at) / RFU CD79A (11719716_a_at) / Fold change /veh CD79A (11719716_a_at) / RFU HIST1H1D (11736915_at) / Fold change /veh HIST1H1D (11736915_at) / RFU CASKIN2 (11723855_a_at) / Fold change /veh CASKIN2 (11723855_a_at) / RFU LOC730098 (11760151_x_at) / Fold change /veh LOC730098 (11760151_x_at) / RFU OR4N2 (11742367_at) / Fold change /veh OR4N2 (11742367_at) / RFU PRRT2 (11749266_a_at) / Fold change /veh PRRT2 (11749266_a_at) / RFU SNX32 (11753110_a_at) / Fold change /veh SNX32 (11753110_a_at) / RFU CDHR5 (11726645_a_at) / Fold change /veh CDHR5 (11726645_a_at) / RFU RCAN1 (11760418_a_at) / Fold change /veh RCAN1 (11760418_a_at) / RFU FAM167A (11723789_a_at) / Fold change /veh FAM167A (11723789_a_at) / RFU FAM26E (11764081_at) / Fold change /veh FAM26E (11764081_at) / RFU ISYNA1 (11749810_s_at) / Fold change /veh ISYNA1 (11749810_s_at) / RFU ACY1 (11761880_at) / Fold change /veh ACY1 (11761880_at) / RFU 11764098_at / Fold change /veh 11764098_at / RFU SAMD14 (11745864_x_at) / Fold change /veh SAMD14 (11745864_x_at) / RFU NPB (11741838_a_at) / Fold change /veh NPB (11741838_a_at) / RFU TMPRSS6 (11731388_a_at) / Fold change /veh TMPRSS6 (11731388_a_at) / RFU KRTAP10-2 (11738614_at) / Fold change /veh KRTAP10-2 (11738614_at) / RFU ARHGAP8 /// PRR5-ARHGAP8 (11727945_x_at) / Fold change /veh ARHGAP8 /// PRR5-ARHGAP8 (11727945_x_at) / RFU KRTAP5-7 /// NADSYN1 (11734609_at) / Fold change /veh KRTAP5-7 /// NADSYN1 (11734609_at) / RFU RASL12 (11751679_a_at) / Fold change /veh RASL12 (11751679_a_at) / RFU CDKN2B (11736163_a_at) / Fold change /veh CDKN2B (11736163_a_at) / RFU PRF1 (11729649_at) / Fold change /veh PRF1 (11729649_at) / RFU, ZNF638 /// ZNF638-IT1 / Fold change vs veh, ZNF638 /// ZNF638-IT1 / RFU, PANK3 / Fold change vs veh, PANK3 / RFU, SH3YL1 / Fold change vs veh, SH3YL1 / RFU, ZEB2 / Fold change vs veh, ZEB2 / RFU, NRIP1 / Fold change vs veh, NRIP1 / RFU, PTTG1IP / Fold change vs veh, PTTG1IP / RFU, CAPN2 / Fold change vs veh, CAPN2 / RFU, MED14 / Fold change vs veh, MED14 / RFU, SNORA58 / Fold change vs veh, SNORA58 / RFU, C1orf63 / Fold change vs veh, C1orf63 / RFU, LRRFIP1 / Fold change vs veh, LRRFIP1 / RFU, NDUFAF7 / Fold change vs veh, NDUFAF7 / RFU, SLC12A2 / Fold change vs veh, SLC12A2 / RFU, IBTK / Fold change vs veh, IBTK / RFU, ESF1 / Fold change vs veh, ESF1 / Fold change vs veh, TMEM50B / RFU, TAOK1 / Fold change vs veh, TAOK1 / RFU, ACBD3 / Fold change vs veh, ACBD3 / RFU, TMA16 / Fold change vs veh, TMA16 / RFU, RWDD3 / Fold change vs veh, RWDD3 / RFU, BCAT1 / Fold change vs veh, BCAT1 / RFU, EDEM3 / Fold change vs veh, EDEM3 / RFU, TMEM33 / Fold change vs veh, TMEM33 / RFU, WDR75 / Fold change vs veh, WDR75 / RFU, AHCTF1 / Fold change vs veh, AHCTF1 / RFU, TFRC / Fold change vs veh, TFRC / RFU, ZDHHC17 / Fold change vs veh, ZDHHC17 / RFU, NOM1 / Fold change vs veh, NOM1 / RFU, ARL8B / Fold change vs veh, ARL8B / RFU, ZBTB11 / Fold change vs veh, ZBTB11 / RFU, TAMM41 / Fold change vs veh, TAMM41 / RFU, KIAA1704 /// LOC100996395 / Fold change vs veh, KIAA1704 /// LOC100996395 / RFU, ING1 / Fold change vs veh, ING1 / RFU, TRMT61B / Fold change vs veh, TRMT61B / RFU, FUBP3 / Fold change vs veh, FUBP3 / RFU, TP53 / Fold change vs veh, TP53 / RFU, TNKS2 / Fold change vs veh, TNKS2 / RFU, ZFP14 / Fold change vs veh, ZFP14 / RFU, ACTR2 / Fold change vs veh, ACTR2 / RFU, PPP3R1 / Fold change vs veh, PPP3R1 / RFU, PIK3R1 / Fold change vs veh, PIK3R1 / RFU, HNRNPA1 / Fold change vs veh, HNRNPA1 / RFU, RNF170 / Fold change vs veh, RNF170 / RFU, ZNF28 / Fold change vs veh, ZNF28 / RFU, RNGTT / Fold change vs veh, RNGTT / RFU, OGT / Fold change vs veh, OGT / RFU, BRD1 / Fold change vs veh, BRD1 / RFU, MARS / Fold change vs veh, MARS / RFU, ZNF655 / Fold change vs veh, ZNF655 / RFU, FAHD1 / Fold change vs veh, FAHD1 / RFU, BDP1 / Fold change vs veh, BDP1 / RFU, LRRCC1 / Fold change vs veh, LRRCC1 / RFU, ARID1A / Fold change vs veh, ARID1A / RFU, ZNF146 / Fold change vs veh, ZNF146 / RFU, ZNF330 / Fold change vs veh, ZNF330 / RFU, GPN3 / Fold change vs veh, GPN3 / RFU, C9orf123 / Fold change vs veh, C9orf123 / RFU, N4BP2L2 / Fold change vs veh, N4BP2L2 / RFU, ARFIP1 / Fold change vs veh, ARFIP1 / RFU, FAM179B / Fold change vs veh, FAM179B / RFU, BCL10 / Fold change vs veh, BCL10 / RFU, UHRF1BP1L / Fold change vs veh, UHRF1BP1L / RFU, BET1 / Fold change vs veh, BET1 / RFU, CNOT2 / Fold change vs veh, CNOT2 / RFU, ZNF268 / Fold change vs veh, ZNF268 / Fold change vs veh, ZNF507 / RFU, DGCR2 / Fold change vs veh, DGCR2 / RFU, WDSUB1 / Fold change vs veh, WDSUB1 / Fold change vs veh, HSP90B1 /// MIR3652 / RFU, ADSS / Fold change vs veh, ADSS / RFU, GK / Fold change vs veh, GK / RFU, ZNF148 / Fold change vs veh, ZNF148 / RFU, TAF9 / Fold change vs veh, TAF9 / RFU, SLC1A5 / Fold change vs veh, SLC1A5 / RFU, SLMO2 / Fold change vs veh, SLMO2 / RFU, ABCC4 / Fold change vs veh, ABCC4 / RFU, LOC101060439 /// RAP1B / Fold change vs veh, LOC101060439 /// RAP1B / RFU, RFX7 / Fold change vs veh, RFX7 / RFU, GTPBP10 / Fold change vs veh, GTPBP10 / RFU, CNEP1R1 / Fold change vs veh, CNEP1R1 / RFU, BIVM-ERCC5 /// ERCC5 / Fold change vs veh, BIVM-ERCC5 /// ERCC5 / RFU, ILF3 / Fold change vs veh, ILF3 / RFU 11762660_at / Fold change /veh 11762660_at / RFU VCAN (11757783_s_at) / Fold change /veh VCAN (11757783_s_at) / RFU DDX43 (11728927_at) / Fold change /veh DDX43 (11728927_at) / RFU KRT8 (11758188_x_at) / Fold change /veh KRT8 (11758188_x_at) / RFU NKD1 (11759106_at) / Fold change /veh NKD1 (11759106_at) / RFU SRD5A1 (11742802_a_at) / Fold change /veh SRD5A1 (11742802_a_at) / RFU TPSAB1 /// TPSB2 (11721975_s_at) / Fold change /veh TPSAB1 /// TPSB2 (11721975_s_at) / RFU GSTM3 (11746129_a_at) / Fold change /veh GSTM3 (11746129_a_at) / RFU IL23R (11737362_x_at) / Fold change /veh IL23R (11737362_x_at) / RFU TMEM51 (11727254_a_at) / Fold change /veh TMEM51 (11727254_a_at) / RFU PIWIL2 (11732686_x_at) / Fold change /veh PIWIL2 (11732686_x_at) / RFU ORM1 (11744905_x_at) / Fold change /veh ORM1 (11744905_x_at) / RFU CCDC152 (11743942_at) / Fold change /veh CCDC152 (11743942_at) / RFU ECM1 (11717891_a_at) / Fold change /veh ECM1 (11717891_a_at) / RFU IL23R (11748794_a_at) / Fold change /veh IL23R (11748794_a_at) / RFU TNFAIP8L3 (11732012_x_at) / Fold change /veh TNFAIP8L3 (11732012_x_at) / RFU MBOAT4 (11741988_at) / Fold change /veh MBOAT4 (11741988_at) / RFU 11764193_at / Fold change /veh 11764193_at / RFU TMEM53 (11763286_at) / Fold change /veh TMEM53 (11763286_at) / RFU MAGEB2 (11727129_at) / Fold change /veh MAGEB2 (11727129_at) / RFU TMEM200A (11744735_a_at) / Fold change /veh TMEM200A (11744735_a_at) / RFU CCDC152 (11751479_a_at) / Fold change /veh CCDC152 (11751479_a_at) / RFU FAM211A (11726209_a_at) / Fold change /veh FAM211A (11726209_a_at) / RFU RGS16 (11746705_a_at) / Fold change /veh RGS16 (11746705_a_at) / RFU VCAN (11755009_s_at) / Fold change /veh VCAN (11755009_s_at) / RFU RHOB (11743442_s_at) / Fold change /veh RHOB (11743442_s_at) / RFU RGS16 (11720943_a_at) / Fold change /veh RGS16 (11720943_a_at) / RFU RGS16 (11720944_at) / Fold change /veh RGS16 (11720944_at) / RFU, VPS4B / Fold change vs veh, VPS4B / RFU, CREB1 / Fold change vs veh, CREB1 / RFU, DNAJC13 / Fold change vs veh, DNAJC13 / RFU, GNAQ / Fold change vs veh, GNAQ / RFU, CDK5R1 / Fold change vs veh, CDK5R1 / RFU, ZRANB3 / Fold change vs veh, ZRANB3 / RFU, CUL4A / Fold change vs veh, CUL4A / RFU, CCNY / Fold change vs veh, CCNY / RFU, UFL1 / Fold change vs veh, UFL1 / RFU, COG3 / Fold change vs veh, COG3 / RFU, DIAPH2 / Fold change vs veh, DIAPH2 / RFU, SKA2 / Fold change vs veh, SKA2 / RFU, AFF3 / Fold change vs veh, AFF3 / RFU, LMF1 / Fold change vs veh, LMF1 / RFU, IPO11 / Fold change vs veh, IPO11 / RFU, DFFB / Fold change vs veh, DFFB / RFU, FOXP1 / Fold change vs veh, FOXP1 / RFU, CARD8 / Fold change vs veh, CARD8 / RFU, STRN3 / Fold change vs veh, STRN3 / RFU, ADK / Fold change vs veh, ADK / RFU, RASSF2 / Fold change vs veh, RASSF2 / RFU, WIPF1 / Fold change vs veh, WIPF1 / RFU, LARP1B / Fold change vs veh, LARP1B / RFU, RASA1 / Fold change vs veh, RASA1 / RFU, RB1 / Fold change vs veh, RB1 / RFU, PPFIA1 / Fold change vs veh, PPFIA1 / RFU, MAT2A / Fold change vs veh, MAT2A / RFU, CCT5 / Fold change vs veh, CCT5 / RFU, WDR92 / Fold change vs veh, WDR92 / RFU, CUX1 / Fold change vs veh, CUX1 / RFU, TTC7A / Fold change vs veh, TTC7A / RFU, TMEM135 / Fold change vs veh, TMEM135 / RFU, DEPTOR / Fold change vs veh, DEPTOR / RFU, CPM / Fold change vs veh, CPM / RFU, DNAJB6 / Fold change vs veh, DNAJB6 / RFU, CACNA2D3 / Fold change vs veh, CACNA2D3 / RFU, DTX4 / Fold change vs veh, DTX4 / RFU, TFCP2 / Fold change vs veh, TFCP2 / RFU, GMCL1 /// GMCL1P1 / Fold change vs veh, GMCL1 /// GMCL1P1 / RFU, AEBP2 / Fold change vs veh, AEBP2 / RFU, SNHG1 /// SNORD22 /// SNORD25 /// SNORD26 /// SNORD27 /// SNORD28 /// SNORD29 /// SNORD31 / Fold change vs veh, SNHG1 /// SNORD22 /// SNORD25 /// SNORD26 /// SNORD27 /// SNORD28 /// SNORD29 /// SNORD31 / Fold change (Aza/veh), C12orf56 (ProbeSet 11735607_a_at) / Fold change (ACY-1035/veh), C12orf56 (ProbeSet 11735607_a_at) / Fold change (Aza/veh), FGFR1OP (ProbeSet 11751329_s_at) / Fold change (ACY-1035/veh), FGFR1OP (ProbeSet 11751329_s_at) / Fold change (Aza/veh), VPS36 (ProbeSet 11739960_a_at) / Fold change (ACY-1035/veh), VPS36 (ProbeSet 11739960_a_at) / RFU SYPL1 (11715823_x_at) / Fold change /veh SYPL1 (11715823_x_at) / RFU IGFBP7 (11715501_s_at) / Fold change /veh IGFBP7 (11715501_s_at) / RFU REEP3 (11722064_at) / Fold change /veh REEP3 (11722064_at) / RFU IGLL1 (11728026_x_at) / Fold change /veh IGLL1 (11728026_x_at): dose or concentration left out as unconfirmed
# Details: MV-4-11 cells, 48 hours
compound,measurement,value
Nc1ccc(-c2cccs2)cc1NC(=O)c1ccc2c(c1)cc(C1CC1)n2CCN1CCOCC1 [ACY-1035],Fold change /veh C10orf10 (11716521_a_at),0.91
